“Also recorded” adds a separate entry of the source.
What was measured:
[1] = system: FKBP-GFP; assay: sfVHL mediated FKBP degradation in Sf9 cells expressing FKBP-GFP-P2A-RFP (fluorescence microscopy); format: cell-based
Protocol: FIG. 2 presents graphs showing the FKBP-GFP to RFP signal ratio when treated with dTAG-V1 (dose curve) and Bortezomib (1 or 10 μM).
FIG. 3 presents microscopy images showing the data plotted in the graphs of FIG. 2. The images are of dTAG-V1 treated Sf9 cells expressing FKBP-GFP-P2A-RFP observed in Brightfield, green fluorescent protein and red fluorescent protein excitation wavelengths.
Sf9 cells were seeded into individual wells of 6-well sterile tissue culture plates (2×10^6 cells per well) with 2 mL fresh Sf900 III serum-free medium prior to the assay. The Sf9 cells were transfected with a plasmid expressing FKBP-GFP-P2A-RFP. Plasmid construct (in TE buffer) was aliquoted into a sterile Eppendorf microcentrifuge tube, with fresh sSf900 III medium added to each Plasmid. Cellfectin II reagent (Life Technologies, Carlsbad, CA) was then added to the transfection mixture, and the tubes were inverted to mix and incubated at room temperature for 30 minutes. All media was removed from each well just prior to the addition of the transfection mixture. Complete transfection mixtures were added to cells dropwise using a P1000 pipette with sterile filter tips. Cells overlayed with transfection mixtures were incubated at 27° C. for 4 hours. Following 4 hours of incubation time, transfection mixtures were removed and replaced with 2 mL of fresh complete medium per well (Sf900 III). Cells were allowed to incubate at 27° C. for 96 hours to allow expression from the transfected plasmid. After construct expression, cells are harvested for further experiments. Cells were detached using a P1000 pipette with sterile filter tips. Cells were resuspended in fresh Sf900 III medium. Transfected Sf9 cells were seeded into individual wells of 96-well sterile tissue culture plates (1×10^6 cells per well) with 0.1 mL fresh Sf900 III serum-free medium. Cells were then supplemented with a 10× stock of the indicated compounds (dTAGV1, dTAG-V1-NEG, Bortezomib). Protein levels were finally analyzed using Carl Zeiss microscopy and FIJI image analysis.

[2] = system: MBP-FKBP-Hibit-His6 / sfVHL:sfElonginB/C+CUL2/RBX1; assay: in vitro ubiquitination of MBP-FKBP-Hibit-His6 by sfVHL mediated by dTAGV-1 (Western blot, anti-His6); format: biochemical; details: sfVHL:sfElonginB/C + human CUL2/RBX1, E1, E2, ATP, ubiquitin; range of concentrations; room temperature
Text: Lanes 1-4 and 5-8 are replicates of dose dependent dTAGV-1 dependent ubiquitination of MBP-FKBP-HIbit by sfVHL in vitro. In vitro ubiquitination is sfVHL dependent. No ubiquitination of MBP-FKBP-Hibit is observed in the absence of sfVHL (Lanes 9-16).
To assess the ability of sfVHL to act as a CUL2 adaptor protein en route to ubiquitination, sfVHL was expressed and purified recombinantly from E. coli as a complex with sfElonginB and C. […] The intensity and number of resolved bands observed, each indicating a distinct ubiquitination pattern of MBP-FKBP-Hibit-His6, was dependent on the dTAGV-1 concentration in the preparation. […] Further, ubiquitination as indicated by the complex band pattern above the MBP-FKBP-Hibit-His6 protein, was only observed when sfVHL:sfElonginB/C+CUL2/RBX1 was present confirming that the observed ubiquitination is PROTAC and sfVHL:sfElonginB/D+CUL2/RBX1 complex dependent.
To assess the ability of sfVHL to act as a CUL2 adaptor protein en route to ubiquitination, sfVHL was expressed and purified recombinantly from E. coli as a complex with sfElonginB and C. […] Further, ubiquitination was only observed when sfVHL:sfElonginB/C+CUL2/RBX1 was present confirming that MBP-FKBP-Hibit-His6 ubiquitination is PROTAC and sfVHL:sfElonginB/D+CUL2/RBX1 complex dependent.

CC[C@H](C(=O)N1CCCC[C@H]1C(=O)O[C@H](CCc1ccc(OC)c(OC)c1)c1ccccc1OCC(=O)NCCCCCCC(=O)N[C@H](C(=O)N1C[C@@H](O)C[C@@H]1C(=O)N[C@@H](C)c1ccc(-c2scnc2C)cc1)C(C)(C)C)c1cc(OC)c(OC)c(OC)c1 [dTAG-V1-NEG]
GFP fluorescence (FKBP-GFP) ([1]; 24 hours of incubation): no decrease in green fluorescent protein is observed

CC(C)C[C@H](NC(=O)[C@H](Cc1ccccc1)NC(=O)c1cnccn1)B(O)O [bortezomib, Bortezomib]
effect on dTAG-V1 dependent reduction of GFP signal ([1]; added together with dTAG-V1 (1 or 10 μM)): prevents the dTAG-V1 dependent reduction of GFP signal

CC[C@H](C(=O)N1CCCC[C@H]1C(=O)O[C@H](CCc1ccc(OC)c(OC)c1)c1ccccc1OCC(=O)NCCCCCCC(=O)N[C@H](C(=O)N1C[C@H](O)C[C@H]1C(=O)N[C@@H](C)c1ccc(-c2scnc2C)cc1)C(C)(C)C)c1cc(OC)c(OC)c(OC)c1 [dTAG-V1]
GFP fluorescence (FKBP-GFP) ([1]; 24 hours of incubation): significantly decreased
RFP signal ([1]; 24 hours of incubation): remains unchanged
concentration of optimal decrease of GFP fluorescence ([1]; 24 hours of incubation): ~100 nM

CC[C@H](C(=O)N1CCCC[C@H]1C(=O)O[C@H](CCc1ccc(OC)c(OC)c1)c1ccccc1OCC(=O)NCCCCCCC(=O)N[C@H](C(=O)N1C[C@H](O)C[C@H]1C(=O)N[C@@H](C)c1ccc(-c2scnc2C)cc1)C(C)(C)C)c1cc(OC)c(OC)c(OC)c1 [dTAGV-1]
ubiquitination of MBP-FKBP-Hibit-His6 [2]: PROTAC mediated mono- and poly-ubiquitination of the protein; also recorded: observed in the presence of dTAGV-1 in a dose dependent manner; also recorded: FKBP substrate is ubiquitinated in vitro

From patent publication US20260068886A1, “COMPOSITIONS AND METHODS FOR TARGETED INHIBITION AND DEGRADATION OF PROTEINS IN AN INSECT CELL” (Oerth Bio LLC, priority 2022, published 2026)
